Measurements: patent US20110236461A1, “METHODS FOR STIMULATING CHONDROGENESIS UTILIZING A POTASSIUM CHANNEL INHIBITOR” (priority 2008, published 2011)

T1: Kv4.2 potassium channel encoded by Kcnd2 (Homo sapiens, UniProt Q9NZV8)
T1 sequence (Q9NZV8 1-630): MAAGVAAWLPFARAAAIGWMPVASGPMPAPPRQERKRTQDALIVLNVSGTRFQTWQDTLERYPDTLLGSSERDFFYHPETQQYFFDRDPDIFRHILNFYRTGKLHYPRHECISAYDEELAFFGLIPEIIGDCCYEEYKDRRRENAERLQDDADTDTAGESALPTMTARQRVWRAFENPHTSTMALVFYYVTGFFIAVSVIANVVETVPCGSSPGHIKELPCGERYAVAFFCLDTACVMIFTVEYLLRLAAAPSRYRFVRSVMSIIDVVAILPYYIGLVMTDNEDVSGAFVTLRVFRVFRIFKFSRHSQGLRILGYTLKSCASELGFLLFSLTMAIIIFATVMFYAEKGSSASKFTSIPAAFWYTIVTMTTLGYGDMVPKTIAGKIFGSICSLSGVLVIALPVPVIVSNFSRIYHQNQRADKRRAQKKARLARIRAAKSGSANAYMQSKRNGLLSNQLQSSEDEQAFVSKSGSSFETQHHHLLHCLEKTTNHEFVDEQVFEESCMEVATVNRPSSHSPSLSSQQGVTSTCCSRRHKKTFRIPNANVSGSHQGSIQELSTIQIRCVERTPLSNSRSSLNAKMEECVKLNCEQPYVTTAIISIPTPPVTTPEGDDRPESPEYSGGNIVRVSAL

B1: BMP4: bone morphogenetic protein-4 (protein, UniProt P12644 293-408, looked up)
Bone morphogenetic protein 4: SPKHHSQRARKKNKNCRRHSLYVDFSDVGWNDWIVAPPGYQAFYCHGDCPFPLADHLNSTNHAIVQTLVNSVNSSIPKACCVPTELSAISMLYLDEYDKVVLKNYQEMVVEGCGCR

How the values were obtained:
[1] = test system: pGL3(4×48) reporter gene (Sox5/6/9 binding sites); assay: PLM transfection assay, pGL3(4×48) luciferase reporter; type: cell-based, murine; details: PLM cultures, relative to control
Description: (§1) Primary limb mesenchymal (PLM) cultures were established from CD-1 murine embryonic limbs (E11.5) as previously described (Hoffman et al., J. Cell 174:101-13 (2006); Weston et al., J. Cell Biol., 158:39-51 (2002)). Limb mesenchyme was dissociated by dispase treatment and a single cell suspension was obtained by filtration through a […] cell strainer (BD Biosciences). PLM cells were pelleted by centrifugation at 200×g and resuspended to produce a stock cell suspension at a concentration of 2.0×10^7 cells/ml. Cells were used for transfection (Example 2) or for establishment of cultures for alcian blue staining.
Stock plasmid DNAs were standardized to a concentration of 1 mg/ml. For co-transfections, a ratio of 3:1 gene of interest to reporter gene was used. Luciferase reporter genes consist of a firefly reporter gene, pGL3(4×48), and a Renilla (Renilla reniformis) luciferase reporter phRL-SV40 to normalize for transfection efficiency. Transfections were carried out using Effectene reagent (Qiagen). The pGL3(4×48) reporter contains four repeats of a Sox5/6/9 binding site. Reporter plasmids containing Sox5/6/9 binding sites (pGL3[4×48]) were previously described (Weston et al., J. Cell Biol., 158:39-51 (2002)).
This dose range is consistent with previous studies on butamben binding and inhibition of potassium channels. […]

[2] = test system: Sox9; assay: Sox9 expression in PLM cultures by RT-qPCR; type: cell-based, murine; details: PLM cultures treated for 1 or 3 days, relative to control
Description: as §1
To follow the expression of transcripts for Kcnd2 and Sox9, quantitative real-time PCR was performed using the 7500 Fast Sequence Detection System (Applied Biosystems). The primer/probe set used for detection of Sox9 was as described in Weston et al., J. Cell Biol., 158:39-51 (2002). For detection of all other transcripts, TaqMan Gene Expression Assays (Applied Biosystems) were used. Total RNA was isolated from primary cultures, and an aliquot was reverse transcribed to cDNA using a High Capacity cDNA Archive kit (Applied Biosystems). Quantification was performed using ˜10 ng of total RNA and the expression of all genes relative to endogenous rRNA was determined using TaqMan Ribosomal Control Reagents (Applied Biosystems). […]

[3] = test system: Mmp13; assay: Mmp13 mRNA in murine limb bud-derived high-density cultures, TaqMan real-time PCR; type: cell-based; details: BMP4 20 ng/ml, BAB 10 μM, 4310 100 nM; RNA at five and ten days; normalized to 5-day control
Description: Murine limb bud-derived high-density cultures were established as previously described (Hoffman 2006). Media was replaced every three days. After 24 hours of culture, compounds were added at the following final concentrations: BMP4 (20 ng/ml), BAB (10 μM), and 4310 (100 nM). After 72 hours of culture, ascorbic acid and beta-glycerol phosphate were added to the culture at final concentrations of 126 μM and 1 mM, respectively. RNA was isolated from cultures at five and ten days. Gene expression was assessed using real-time PCR with TaqMan® probe and primer sets (Applied Biosystems, Taqman Gene Expression Assay Mm00439491_m1). All gene expression levels were normalized to the 5-day control (set at 100%). Results are shown in FIG. 7 and are the average of two replicates.

[4] = test system: voltage-gated potassium channel Kv1 and 4 classes; details: Winkelman et al. 2005; Beekwilder et al. 2003; cited from earlier work
[5] = biological target: T1, Kv4.2 potassium channel encoded by Kcnd2; details: Winkelman et al. 2005; cited from earlier work
[6] = test system: pGL3(4×48) reporter; assay: pGL3(4×48) reporter in high-density murine limb bud-derived cultures, compounds alone or in combination; type: cell-based; details: BMP4 20 ng/ml, BAB 10 μM, 4310 100 nM; 24 h and 72 h after treatment; normalized to untreated controls
Description: High-density murine limb bud-derived cultures were established as previously described (Hoffman 2006). Media was replaced every two days. Cells were transfected on day 0 with pGL3(4×48) (reporter) and phRL-SV40 (to normalize transfection efficiency) plasmids using Effectene transfection reagent (Qiagen). Twenty-four hours after transfection, cells were treated with the following final concentrations of compounds, either individually or in combination: BMP4 (20 ng/ml), butamben (BAB) (10 μM), and the pan-RAR antagonist 4310 (100 nM). Lysates were collected at 24 h and 72 h after treatment. Luciferase activity was measured using the Dual-Luciferase® kit according to the manufacturer's instructions (Promega). Reporter activity was normalized to untreated controls (−) on the same day.

[7] = test system: primary limb mesenchymal (PLM) cultures; assay: alcian blue staining of PLM cultures; type: cell-based, murine; details: PLM transfection assays and alcian blue staining experiments
Description: Primary limb mesenchymal (PLM) cultures were established from CD-1 murine embryonic limbs (E11.5) as previously described (Hoffman et al., J. Cell 174:101-13 (2006); Weston et al., J. Cell Biol., 158:39-51 (2002)). Limb mesenchyme was dissociated by dispase treatment and a single cell suspension was obtained by filtration through a […] cell strainer (BD Biosciences). PLM cells were pelleted by centrifugation at 200×g and resuspended to produce a stock cell suspension at a concentration of 2.0×10^7 cells/ml. Cells were used for transfection (Example 2) or for establishment of cultures for alcian blue staining. For the latter, 10 μl of PLM cells were spotted into the well of a 24-well plate, and allowed to adhere for 1 h. Culture medium consisting of 60% Ham's F12 nutrient mix/40% Dulbecco's modified Eagle's medium (DMEM) and supplemented with 10% FBS (Qualified, Invitrogen) was added to each well; this time was considered T=0. Cultures were maintained for a period of up to 4 days, and culture media was replaced on alternate days to minimize handling. For alcian blue staining, culture medium was aspirated and cells were washed once with PBS. Cultures were fixed in 95% ethanol at −20° C. overnight. Fixative was removed by aspiration and cells were sequentially washed once with PBS, followed by 0.2M HCl. Cells were stained overnight with a 1% alcian blue solution prepared in 0.2M HCl.

| Molecule | activity of chondrogenic responsive reporter gene pGL3(4×48) [1] | Sox9 expression [2] | Mmp13 expression [3] | block of voltage-gated potassium channel Kv1 and 4 classes [4] | block of Kv4.2 potassium channel [5] | pGL3(4×48) reporter gene activity [6] | chondrogenic activity [7] |
| --- | --- | --- | --- | --- | --- | --- | --- |
| Nc1ccncc1 [4-AP, 4-aminopyridine] | significantly induces |  |  |  |  |  |  |
| CCCCOC(=O)c1ccc(N)cc1 [butamben, butyl 4-aminobenzoate] | significantly increase | increased Sox9 expression | markedly decreased | blocks | blocked | increased | low micromolar concentrations of butamben stimulate chondrogenic activity |
| B1 |  |  | increased |  |  | increased |  |
